The target of this assay is T1, human TPH1 (Homo sapiens, UniProt P17752).
T1 sequence (P17752 1-444): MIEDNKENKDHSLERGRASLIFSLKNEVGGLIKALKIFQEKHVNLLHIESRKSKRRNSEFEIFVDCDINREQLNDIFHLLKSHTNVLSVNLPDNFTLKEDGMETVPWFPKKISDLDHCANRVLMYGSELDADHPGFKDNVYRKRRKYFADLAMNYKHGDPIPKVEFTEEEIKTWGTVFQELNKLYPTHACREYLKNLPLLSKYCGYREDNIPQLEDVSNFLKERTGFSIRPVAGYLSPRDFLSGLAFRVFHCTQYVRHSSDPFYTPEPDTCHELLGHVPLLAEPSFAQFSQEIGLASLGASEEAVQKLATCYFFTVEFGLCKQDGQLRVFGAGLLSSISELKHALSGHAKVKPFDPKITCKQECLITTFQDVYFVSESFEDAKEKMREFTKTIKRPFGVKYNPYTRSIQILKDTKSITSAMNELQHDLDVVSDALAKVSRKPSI
Kind of assay: biochemical. The source says: Biochemical In Vitro Assay Using Fluorescence Readout
To generate the enzyme, full length human TPH1 is cloned into the plasmid pET20b(+) (Novagen) and expressed in E. coli. The bacterial cells are ruptured by sonication on ice and the lysate is cleared by centrifugation. The resulting protein in the pellet is re-extracted and TPH1 is purified from the obtained lysate by affinity chromatography using a pterin cosubstrate analog immobilized to the resin of the column. The protein is further purified by size exclusion chromatography to remove protein aggregates. The activity of TPH1 is determined by using a fluorescence assay. The enzyme activity assay is carried out at 15° C. with atmosphere oxygen for the duration of 60 minutes in a volume of 64 μl. The reaction is carried out in a 0.1 M Tris-HCl buffer, adjusted to pH 7.6, containing 1 mM DTT, 0.2 mg/mL catalase, 100 μM (±)-6-methyl-5,6,7,8-tetrahydropterine dihydrochloride, 40 μM L-tryptophan, and 40-80 nM of TPH1. The reaction is started by bringing together L-tryptophan with all the other reaction substituents and stopped by quenching with perchloric acid (HClO4). The amount of 5-hydroxy-L-tryptophan produced during the enzymatic reaction is determined by fluorescence readout. Fluorescence, as determined at 540 nm when excited at 300 nm wavelength, increases proportionally to the 5-hydroxy-L-tryptophan formed. Compounds are prepared as 10 mM stock solution in DMSO, then diluted in 384-well plates using DMSO followed by a transfer of the dilutions into the assay plate. Fluorescence is measured for each well and the fluorescence at 540 nm wavelength is compared to the fluorescence of the vehicle in place of compound. […] The calculated IC50 values may fluctuate depending on the daily biochemical assay performance. Fluctuations of this kind are known to those skilled in the art.
The compound `O=C(COc1ccc2ccccc2c1)N1CCc2nc3cc(C(F)(F)F)ccn3c2C1c1ccccc1F` (stereo not drawn) [Example 3.35.1, 1-(1-(2-fluorophenyl)-7-(trifluoromethyl)-3,4-dihydroimidazo[1,2-a:5,4-c′]dipyridin-2(1H)-yl)-2-(naphthalen-2-yloxy)ethan-1-one] gave an IC50 of 17 nM. `COc1ccc(C2c3c(nc4cc(C(F)(F)F)ccn34)CCN2C(=O)COc2ccc3c(c2C)CCNC3)c(F)c1` (stereo not drawn) [Example 3.3.5, 1-(1-(2-fluoro-4-methoxyphenyl)-7-(trifluoromethyl)-3,4-dihydroimidazo[1,2-a:5,4-c′]dipyridin-2(1H)-yl)-2-((5-methyl-1,2,3,4-tetrahydroisoquinolin-6-yl)oxy)ethan-1-one] yielded an IC50 of 217 nM. Regarding `Cc1csc(C2c3c(nc4cc(C(F)(F)F)ccn34)CCN2C(=O)COc2ccc(CN3CCOCC3)cc2Cl)n1` (stereo not drawn) [Example 3.42.2, 2-(2-chloro-4-(morpholinomethyl)phenoxy)-1-(1-(4-methylthiazol-2-yl)-7-(trifluoromethyl)-3,4-dihydroimidazo[1,2-a:5,4-c′]dipyridin-2(1H)-yl)ethan-1-one], the IC50 was found to be 427 nM. As for `Cc1nc(C)c(C2c3c(nc4cc(C(F)(F)F)ccn34)CCN2C(=O)COc2ccc(-c3ncco3)nc2Cl)s1` (stereo not drawn) [Example 3.59.1, 2-((2-chloro-6-(oxazol-2-yl)pyridin-3-yl)oxy)-1-(1-(2,4-dimethylthiazol-5-yl)-7-(trifluoromethyl)-3,4-dihydroimidazo[1,2-a:5,4-c′]dipyridin-2(1H)-yl)ethan-1-one], the figure is 22 nM; as for `COc1ccc(C2c3c(nc4cc(C(F)(F)F)ccn34)CCN2C(=O)COc2ccc(CN3CCOCC3)c(C)c2C)c(F)c1` (stereo not drawn) [Example 3.3.3, 2-(2,3-dimethyl-4-(morpholinomethyl)phenoxy)-1-(1-(2-fluoro-4-methoxyphenyl)-7-(trifluoromethyl)-3,4-dihydroimidazo[1,2-a:5,4-c′]dipyridin-2(1H)-yl)ethan-1-one], 8 nM.

In turn, `CS(=O)(=O)Nc1ccc(OCC(=O)N2CCc3nc4cc(F)ccn4c3C2c2ccc(Cl)cc2F)c(Cl)n1` (stereo not drawn) [Example 14.1.1, N-(6-chloro-5-(2-(1-(4-chloro-2-fluorophenyl)-7-fluoro-3,4-dihydroimidazo[1,2-a:5,4-c′]dipyridin-2(1H)-yl)-2-oxoethoxy)pyridin-2-yl)methanesulfonamide] registered an IC50 of 74 nM.

`CS(=O)(=O)Nc1ccc(OCC(=O)N2CCc3nc4cccnn4c3C2c2ccc(Cl)cc2F)c(Cl)n1` (stereo not drawn) [Example 16.4.1, N-(6-chloro-5-(2-(9-(4-chloro-2-fluorophenyl)-6,9-dihydropyrido[4′,3′:4,5]imidazo[1,2-b]pyridazin-8(7H)-yl)-2-oxoethoxy)pyridin-2-yl)methanesulfonamide] displayed an IC50 of 167 nM. As for `O=C(COc1ccc(CN2CCOCC2)cc1Cl)N1CCc2nc3cc(C(F)(F)F)ccn3c2C1c1cccnc1` (stereo not drawn) [Example 3.36.2, 2-(2-chloro-4-(morpholinomethyl)phenoxy)-1-(1-(pyridin-3-yl)-7-(trifluoromethyl)-3,4-dihydroimidazo[1,2-a:5,4-c′]dipyridin-2(1H)-yl)ethan-1-one], the figure is 488 nM; as for `Cc1cc(C2c3c(nc4cc(C(F)(F)F)ccn34)CCN2C(=O)COc2ccc3ccccc3c2)ccc1F` (stereo not drawn) [Example 3.33.1, 1-(1-(4-fluoro-3-methylphenyl)-7-(trifluoromethyl)-3,4-dihydroimidazo[1,2-a:5,4-c′]dipyridin-2(1H)-yl)-2-(naphthalen-2-yloxy)ethan-1-one], 127 nM. The result for `COc1cc(F)c(C2c3c(nc4cc(C(F)(F)F)ccn34)CCN2C(=O)COc2ccc(C3(N4CCOCC4)COC3)cc2Cl)cc1OC` (stereo not drawn) [Example 3.18.10, 2-(2-chloro-4-(3-morpholinooxetan-3-yl)phenoxy)-1-(1-(2-fluoro-4,5-dimethoxyphenyl)-7-(trifluoromethyl)-3,4-dihydroimidazo[1,2-a:5,4-c′]dipyridin-2(1H)-yl)ethan-1-one] reads 25 nM. The result for `COc1ccc(C2c3c(nc4ccccn34)CCN2C(=O)COc2ccc(Cl)cc2Cl)cc1OC` (stereo not drawn) [Example 1.1.4, 2-(2,4-dichlorophenoxy)-1-(1-(3,4-dimethoxyphenyl)-3,4-dihydroimidazo[1,2-a:5,4-c′]dipyridin-2(1H)-yl)ethan-1-one] reads 69 nM; that for `CCOc1ccc(C2c3c(nc4cc(C(F)(F)F)ccn34)CCN2C(=O)COc2ccc3ccccc3c2)cc1` (stereo not drawn) [Example 3.25.1, 1-(1-(4-ethoxyphenyl)-7-(trifluoromethyl)-3,4-dihydroimidazo[1,2-a:5,4-c′]dipyridin-2(1H)-yl)-2-(naphthalen-2-yloxy)ethan-1-one], 104 nM. Regarding `O=C(COc1cccnc1Cl)N1CCc2nc3cc(C(F)(F)F)ccn3c2C1c1ccc(Cl)cc1F` (stereo not drawn) [Example 3.4.1, 1-(1-(4-chloro-2-fluorophenyl)-7-(trifluoromethyl)-3,4-dihydroimidazo[1,2-a:5,4-c′]dipyridin-2(1H)-yl)-2-((2-chloropyridin-3-yl)oxy)ethan-1-one], inhibition was half-maximal at 44 nM (IC50). Consider `COc1ccc(C2c3c(nc4cc(C(F)(F)F)ccn34)CCN2C(=O)COc2ccc(Cl)cc2Cl)cc1OC` (stereo not drawn) [Example 3.1.2, 2-(2,4-Dichlorophenoxy)-1-(1-(3,4-dimethoxyphenyl)-7-(trifluoromethyl)-3,4-dihydroimidazo[1,2-a:5,4-c′]dipyridin-2(1H)-yl)ethan-1-one], for which the IC50 turned out to be 30 nM.

Take `COc1ccc(C2c3c(nc4cc(C(F)(F)F)ccn34)CCN2C(=O)COc2cccc(C(F)(F)F)c2Cl)cc1OC` (stereo not drawn) [Example 3.1.13, 2-(2-chloro-3-(trifluoromethyl)phenoxy)-1-(1-(3,4-dimethoxyphenyl)-7-(trifluoromethyl)-3,4-dihydroimidazo[1,2-a:5,4-c′]dipyridin-2(1H)-yl)ethan-1-one]: the IC50 came to 19 nM.

On to `O=C(COc1ccc2ccccc2c1)N1CCc2nc3cc(C(F)(F)F)ccn3c2C1c1nc2ccccc2s1` (stereo not drawn) [Example 3.44.1, 1-(1-(benzo[d]thiazol-2-yl)-7-(trifluoromethyl)-3,4-dihydroimidazo[1,2-a:5,4-c′]dipyridin-2(1H)-yl)-2-(naphthalen-2-yloxy)ethan-1-one], for which half-maximal inhibition (IC50) was put at 76 nM. The compound `O=C(COc1ccc(CN2CCOCC2)cc1Cl)N1CCc2nc3cc(C(F)(F)F)ccn3c2C1c1ccnc(Cl)c1` (stereo not drawn) [Example 3.56.2, 2-(2-chloro-4-(morpholinomethyl)phenoxy)-1-(1-(2-chloropyridin-4-yl)-7-(trifluoromethyl)-3,4-dihydroimidazo[1,2-a:5,4-c′]dipyridin-2(1H)-yl)ethan-1-one] had an IC50 of 295 nM.

Take `COc1ccc(C2c3c(nc4cc(C)ccn34)CCN2C(=O)COc2ccc(Cl)cc2Cl)cc1OC` (stereo not drawn) [Example 4.1.1, 2-(2,4-dichlorophenoxy)-1-(1-(3,4-dimethoxyphenyl)-7-methyl-3,4-dihydroimidazo[1,2-a:5,4-c′]dipyridin-2(1H)-yl)ethan-1-one]: it took 32 nM to reach half-maximal inhibition (IC50). As for `CCc1cc(N2CCN(C)CC2)ccc1OCC(=O)N1CCc2nc3cc(C(F)(F)F)ccn3c2C1c1ccc(OC)c(OC)c1` (stereo not drawn) [Example 3.1.32, 1-(1-(3,4-dimethoxyphenyl)-7-(trifluoromethyl)-3,4-dihydroimidazo[1,2-a:5,4-c′]dipyridin-2(1H)-yl)-2-(2-ethyl-4-(4-methylpiperazin-1-yl)phenoxy)ethan-1-one], the figure is 21 nM. The result for `O=C(COc1ccc2ccccc2c1)N1CCc2nc3cc(C(F)(F)F)ccn3c2C1c1ccc(OC(F)F)cc1` (stereo not drawn) [Example 3.26.1, 1-(1-(4-(difluoromethoxy)phenyl)-7-(trifluoromethyl)-3,4-dihydroimidazo[1,2-a:5,4-c′]dipyridin-2(1H)-yl)-2-(naphthalen-2-yloxy)ethan-1-one] reads 120 nM. `CCc1c(OCC(=O)N2CCc3nc4cc(C(F)(F)F)ccn4c3C2c2ccc(C3CC3)cc2F)ccc(C)[n+]1[O-]` (stereo not drawn) [Example 3.5.3, 1-(1-(4-cyclopropyl-2-fluorophenyl)-7-(trifluoromethyl)-3,4-dihydroimidazo[1,2-a:5,4-c′]dipyridin-2(1H)-yl)-2-((2-ethyl-6-methyl-1-(I1-oxidanyl)-1I4-pyridin-3-yl)oxy)ethan-1-one] gave a 50% inhibitory concentration (IC50) of 85 nM.

The values above are taken from US20180155344A1, “TRICYCLIC PIPERIDINE COMPOUNDS” (ACTELION PHARMACEUTICALS LTD, priority 2015, published 2018).
